Test results published in patent publication US11793803B2, “Particle and pharmaceutical composition comprising an insoluble camptothecin compound with double core-shell structure and method for manufacturing the same” (SN BIOSCIENCE INC., priority 2017, dated 2023).
In brackets after ≈: the same amount, converted by molar mass.

Experiment: Solubility in different solvents (supersaturated solution, filtrate analysed by HPLC)
Details: for solubility at 30 min: thermodynamic from solid
Procedure: A supersaturated solution was prepared by adding 20 mg of the hydrophobic camptothecin compound (camptothecin or SN-38) to 5 ml of ethanol, acetonitrile, acetone, ethyl acetate, chloroform dimethyl sulfoxide, or distilled water, followed by ultrasonic treatment for 30 minutes. The prepared supersaturated solution was filtered through a 0.45-μm filter, and a filtrate was properly diluted, followed by HPLC analysis.
The prepared supersaturated solution was filtered through a 0.45-μm filter, and a filtrate was properly diluted, followed by HPLC analysis.
HPLC (Agilent 1200 Series, USA) conditions were as follows. The column was CapcellPak C8 (5 m, 4.6 mm×25 cm, Shiseido); the mobile phase was a mixed solvent of methanol:acetonitrile:buffer (2.8 g/L sodium dihydrogenphosphate, 1.8 g/L 1-octanesulfonate aqueous solution)=17:24:59 (v/v); the flow rate was 1.5 mL/min; the measurement wavelength was UV 255 nm; and the sample injection amount was 15 μL.

| SMILES | solubility at 30 min (acetonitrile, organic solvent or mixture) [µg/mL] | solubility at 30 min (chloroform, organic solvent or mixture) [µg/mL] | solubility at 30 min (dimethyl sulfoxide, organic solvent or mixture) [µg/mL] | solubility at 30 min (distilled water, water) [µg/mL] | solubility at 30 min (ethanol, organic solvent or mixture) [µg/mL] | solubility at 30 min (ethyl acetate, organic solvent or mixture) [µg/mL] | Solubility of hydrophobic camptothecin-based compound (Acetonitrile) [µg/mL] | Solubility of hydrophobic camptothecin-based compound (Chloroform) [µg/mL] | Solubility of hydrophobic camptothecin-based compound (Dimethyl sulfoxide) [µg/mL] | Solubility of hydrophobic camptothecin-based compound (Distilled water) [µg/mL] | Solubility of hydrophobic camptothecin-based compound (Ethanol) [µg/mL] | Solubility of hydrophobic camptothecin-based compound (Ethyl acetate) [µg/mL] |
| --- | --- | --- | --- | --- | --- | --- | --- | --- | --- | --- | --- | --- |
| CC[C@@]1(O)C(=O)OCc2c1cc1n(c2=O)Cc2cc3ccccc3nc2-1 [Camptothecin, camptothecin] | 101 (≈ 290 µM) | 2 (≈ 5.74 µM) | 3290 (≈ 9450 µM) | 9 (≈ 25.8 µM) | 149 (≈ 428 µM) | 134 (≈ 385 µM) | – | – | – | – | – | – |
| CCc1c2c(nc3ccc(O)cc13)-c1cc3c(c(=O)n1C2)COC(=O)[C@]3(O)CC [SN-38, 7-ethyl-10-hydroxy-camptothecin] | – | – | – | – | – | – | 402 | 9 | 2263 | <1 | 779 | 78 |
